The supplement of paper PMC10307832

How the values were obtained:
Assay in all cases: relative viability (nuclei count vs DMSO), 5 days (fraction); higher = more cells survive
[1] = compound: Cn1cc(-c2cnn3c(N)c(Br)c([C@@H]4CCCNC4)nc23)cn1 + O=C(c1cc(Cc2n[nH]c(=O)c3ccccc23)ccc1F)N1CCN(C(=O)C2CC2)CC1 [Olaparib] (partner 8 µM)
Method in brief: (§1)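 Lung cancer cell lines were pin-tool dosed in 1536-well plates on the day after seeding, with either a lone drug or a fixed anchor-drug dose plus five library-drug doses (not always all listed) in √10 steps. Nuclei were counted on 4× images after 5 days. Relative viability is the ratio of treated-well to vehicle-well nuclei counts, with each value a median of duplicate plates.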

[2] = compound: Cn1cc(-c2cnn3c(N)c(Br)c([C@@H]4CCCNC4)nc23)cn1 + NC(=O)Nc1cc(-c2cccc(F)c2)sc1C(=O)N[C@H]1CCCNC1 [AZD7762] (partner 0.2 µM)
Method in brief: as §1

[3] = compound: Cn1cc(-c2cnn3c(N)c(Br)c([C@@H]4CCCNC4)nc23)cn1 + CS(=O)(=O)CCNCc1ccc(-c2ccc3ncnc(Nc4ccc(OCc5cccc(F)c5)c(Cl)c4)c3c2)o1 [Lapatinib] (partner 2 µM)
Method in brief: as §1

[4] = compound: Cn1cc(-c2cnn3c(N)c(Br)c([C@@H]4CCCNC4)nc23)cn1 + Nc1ncn([C@H]2C[C@H](O)[C@@H](CO)O2)c(=O)n1 [Decitabine] (partner 2 µM)
Method in brief: as §1

Cell Line | relative viability ([1]; first compound 0.05 µM) | relative viability ([1]; first compound 0.1581 µM) | relative viability ([1]; first compound 0.5 µM) | relative viability ([1]; first compound 1.581 µM) | relative viability ([1]; first compound 5 µM) | relative viability ([2]; first compound 0.05 µM) | relative viability ([2]; first compound 0.1581 µM) | relative viability ([2]; first compound 0.5 µM) | relative viability ([2]; first compound 1.581 µM) | relative viability ([2]; first compound 5 µM) | relative viability ([3]; first compound 0.05 µM) | relative viability ([3]; first compound 0.1581 µM) | relative viability ([3]; first compound 0.5 µM) | relative viability ([3]; first compound 1.581 µM) | relative viability ([3]; first compound 5 µM) | relative viability ([4]; first compound 0.05 µM) | relative viability ([4]; first compound 0.1581 µM) | relative viability ([4]; first compound 0.5 µM) | relative viability ([4]; first compound 1.581 µM) | relative viability ([4]; first compound 5 µM)
201T | 0.888 | 0.836 | 0.803 | 0.743 | 0.719 | 0.597 | 0.618 | 0.661 | 0.506 | 0.498 | 1 | 1.09 | 1.02 | 0.951 | 1.11 | 0.809 | 0.856 | 0.844 | 0.882 | 0.93
A-427 | 0.819 | 0.761 | 0.742 | 0.704 | 0.561 | 0.72 | 0.569 | 0.566 | 0.502 | 0.344 | 0.979 | 1.14 | 0.986 | 0.839 | 0.959 | 0.534 | 0.591 | 0.555 | 0.544 | 0.33
ABC-1 |  | 1.1 | 1.17 | 0.783 | 0.456 | 0.689 | 0.984 | 0.755 | 0.599 | 0.5 | 1.18 | 1.18 | 1.18 | 1.26 | 1.04 |  | 1.3 | 1.02 | 1.18 | 0.731
BEN | 1.14 | 1.12 | 1.17 | 1.01 | 0.905 | 0.659 | 0.69 | 0.688 | 0.667 | 0.533 | 0.84 | 0.762 | 0.655 | 0.736 | 0.516 | 0.701 | 0.763 | 0.663 | 0.709 | 0.629
CAL-12T | 0.835 | 0.752 | 0.824 | 0.398 | 0.268 | 0.541 | 0.531 | 0.538 | 0.494 | 0.239 | 0.713 | 0.735 | 0.723 | 0.618 | 0.395 |  |  |  |  | 
COR-L23 | 0.38 | 0.302 | 0.3 | 0.249 | 0.168 |  |  |  |  |  | 0.966 | 1.26 | 1.03 | 0.471 | 0.445 | 0.407 | 0.489 | 0.481 | 0.354 | 0.248
COR-L 105 | 0.467 | 0.512 | 0.752 | 0.64 | 0.519 |  |  |  |  |  | 0.323 | 0.386 | 0.393 | 0.354 | 0.311 | 0.66 | 0.703 | 0.563 | 0.597 | 0.608
Calu-6 | 0.604 | 0.521 | 0.481 | 0.251 | 0.168 |  |  |  |  |  | 1.2 | 0.745 | 0.678 | 0.329 | 0.193 |  |  |  |  | 
ChaGo-K-1 | 0.407 | 0.511 | 0.419 | 0.428 | 0.463 | 0.843 | 0.801 | 0.866 | 0.761 | 0.755 |  |  |  |  |  | 0.52 | 0.559 | 0.526 | 0.563 | 0.601
EKVX | 0.761 | 0.958 | 0.872 | 0.767 | 0.707 | 0.76 | 0.75 | 0.711 | 0.603 | 0.537 | 0.204 | 0.215 | 0.192 | 0.193 | 0.184 | 0.768 | 0.414 | 0.343 | 0.571 | 0.41
EMC-BAC-2 | 0.492 | 0.521 | 0.47 | 0.383 | 0.475 | 1.05 | 1.26 | 1.08 | 1.04 | 0.821 | 0.843 | 0.987 | 0.961 | 0.852 | 0.889 | 0.976 | 1.02 | 0.981 | 0.827 | 0.887
EPLC-272H | 0.709 | 0.683 | 0.294 | 0.279 | 0.215 | 0.13 | 0.195 | 0.179 | 0.17 | 0.178 | 0.849 | 0.991 | 0.843 | 0.688 | 0.674 | 0.342 | 0.304 | 0.336 | 0.303 | 0.253
H3255 | 0.567 | 0.615 | 0.604 | 0.509 | 0.39 | 0.978 | 0.896 | 1.05 | 0.746 | 0.527 | 0.25 | 0.214 | 0.247 | 0.264 | 0.204 | 0.624 | 0.586 | 0.585 | 0.647 | 0.474
HARA | 0.758 | 0.856 | 0.784 | 0.442 | 0.229 | 0.401 | 0.34 | 0.292 | 0.26 | 0.199 | 0.728 | 0.873 | 1.08 | 0.626 | 0.179 | 0.691 | 0.497 | 0.624 | 0.584 | 0.41
HCC-15 | 0.832 | 0.797 | 0.837 | 0.867 | 0.973 | 1.18 | 1.29 | 1.3 | 1.31 | 1.36 | 0.952 | 0.949 | 0.648 | 0.811 | 0.827 | 0.652 | 0.689 | 0.633 | 0.552 | 0.561
HCC-44 | 1.01 | 0.975 | 1 | 0.91 | 1.01 | 0.889 | 1.01 | 1.02 | 0.964 | 1.05 | 1.01 | 1.15 | 1.1 | 0.8 | 0.968 | 0.887 | 1.06 | 1.04 | 0.969 | 0.964
HCC-78 | 0.826 | 0.874 | 0.947 | 0.878 | 0.465 | 0.515 | 0.647 | 0.648 | 0.563 | 0.386 | 0.841 | 0.92 | 0.786 | 0.641 | 0.245 | 0.733 | 0.729 | 0.783 | 0.675 | 0.492
HCC-366 | 0.392 | 0.372 | 0.296 | 0.229 | 0.137 | 0.202 | 0.247 | 0.344 | 0.229 | 0.224 | 1.05 | 1.32 | 0.66 | 0.649 | 0.382 | 0.307 | 0.338 | 0.334 | 0.347 | 0.247
